The results in this text go back to ChEMBL document CHEMBL1158266, “Cyclopentabenzofuran lignan protein synthesis inhibitors from Aglaia odorata” (J Nat Prod, 1996).

The IC50 is the concentration that gives 50% inhibition. A high value points to weaker potency in that assay.

The subject of assay [1] is NRK. As to the kind of experiment: Induction of morphological changes in rat NRK cells expressing K-ras-ts proto-oncogene assessed as flat morphology. It counts as functional, cell-based.
The test system of assay [2] is NRK. Description: Induction of morphological changes in rat NRK cells expressing K-ras assessed as flat morphology. It is filed as functional, cell-based.
Assay [3] deals with NIH3T3. As to the kind of experiment: Growth inhibition of mouse NIH/3T3 cells expressing N-ras. It counts as functional, cell-based.
In assay [4] the test system is NRK. Description: Growth inhibition of rat NRK cells. It counts as cell-based.
In assay [5] the test system is NRK. As to the kind of experiment: Inhibition of DNA synthesis in rat NRK cells expressing K-ras assessed as [methyl-3H]thymidine incorporation after 1 hr. It is filed as functional, cell-based. In general terms: Uptake of a labelled nucleoside into DNA is a usual measure of proliferation.
Assay [6] in a line: Growth inhibition of mouse NIH/3T3 cells. It counts as cell-based. The following applies: NIH3T3.
In assay [7] the test system is NRK. As to the kind of experiment: Induction of morphological changes in rat NRK cells expressing K-ras assessed as flat morphology and cytoskeletal organization at 10 to 30 ng/mL after 1 day. It counts as functional, cell-based.
The test system of assay [8] is NRK. Description: Inhibition of protein synthesis in rat NRK cells expressing K-ras assessed as L-[4,5-3H]leucine incorporation after 1 hr. It is filed as functional, cell-based.
Assay [9] has as its system NRK. As to the kind of experiment: Growth inhibition of rat NRK cells expressing K-ras. It counts as functional, cell-based.
Assay [10] concerns NIH3T3. As to the kind of experiment: Growth inhibition of mouse NIH/3T3 cells expressing H-ras. It is filed as functional, cell-based.
Assay [11] relates to NRK. Description: Decrease in cellular Ras protein level in rat NRK cells expressing K-ras at 2.5 ng/mL after 1 to 3 days by immunoblotting. It is filed as functional, cell-based. Background: A western blot detects proteins with antibodies after separation by electrophoresis.
Assay [12] concerns NIH3T3. Description: Growth inhibition of mouse NIH/3T3 cells expressing K-ras. It counts as functional, cell-based.
Assay [13] concerns NRK. Description: Inhibition of RNA synthesis in rat NRK cells expressing K-ras assessed as [5-3H]uridine incorporation after 1 hr. It is filed as functional, cell-based.
For assay [14], the system named is NRK. Description: Induction of morphological changes in rat NRK cells expressing K-ras assessed as flat morphology and cytoskeletal organization at 10 to 30 ng/mL after 3 days. It counts as functional, cell-based.

In brackets after ≈: the same amount, converted by molar mass. Activity calls are given as the source filed them. The rule behind the calls is not given here.

Regarding `CC[C@@]12CC(C(=O)OC)=C3Nc4cc5c(cc4[C@@]34CCN(C[C@H]3O[C@H]31)[C@@H]24)[C@@H]1[C@H](O5)[C@@H](O)[C@@]2(CC)CC(C(=O)OC)=C3Nc4c(cc(O)c(OC)c4OC)[C@@]34CCN1[C@@H]24`, the result in the assay with NRK [1] and with NRK [2] was Active.

On to `CC[C@@]12C=CCN3CC[C@]4(C(=C(C(=O)OC)C1)Nc1cc5c(cc14)[C@H]1[C@@H](O5)[C@H](O)[C@]4(CC)CC(C(=O)OC)=C5Nc6c(cc(O)c(OC)c6OC)[C@@]56CCN1[C@H]46)[C@H]32`, for which the outcome in the assay on NRK [1] and in the assay on NRK [2] was Active.

Take `COc1ccc([C@@]23Oc4cc(OC)cc(OC)c4[C@]2(O)c2nc4n(c(=O)c2[C@H]3c2ccccc2)CCC4)cc1`: the IC50 with NIH3T3 [3] was found to be 8 ng/mL (≈ 0.0153 µM); in the assay on NRK [4], 9.8 ng/mL (≈ 0.0187 µM); in [6], 7.6 ng/mL (≈ 0.0145 µM); in the assay on NRK [9], 81 ng/mL (≈ 0.154 µM); in the assay on NIH3T3 [10], 7.8 ng/mL (≈ 0.0149 µM); in the assay on NIH3T3 [12] it was 8.9 ng/mL (≈ 0.017 µM). Also, the outcome in the assay on NRK [5] and with NRK [13] was inactive. Besides, the outcome with NRK [7], in the assay on NRK [8], in the assay with NRK [11] and with NRK [14] was Active.

In the case of `COc1c(C=O)c(O)cc2c1C(=O)c1ccccc1C2=O`, the result in the assay on NRK [1] and in the assay on NRK [2] was Active.

Regarding `COc1ccc([C@@]23Oc4cc(OC)cc(OC)c4[C@]2(O)[C@H](O)C[C@H]3c2ccccc2)cc1` [ROCAGLAOL], the IC50 was found to be 7.5 ng/mL (≈ 0.0173 µM) in the assay with NIH3T3 [3]; 10 ng/mL (≈ 0.023 µM) in the assay with NRK [4]; 2 ng/mL (≈ 0.0046 µM) in assay [6]; 5.8 ng/mL (≈ 0.0133 µM) in the assay with NRK [9]; 5.3 ng/mL (≈ 0.0122 µM) in the assay with NIH3T3 [10]; 7 ng/mL (≈ 0.0161 µM) with NIH3T3 [12]. Moreover, the result in the assay on NRK [5] and in the assay with NRK [13] was inactive. Also, the result in the assay on NRK [7], with NRK [8], with NRK [11] and in the assay on NRK [14] was Active.

On to `COc1ccc([C@@]23Oc4cc(OC)cc(OC)c4[C@]2(O)C2=C(C(=O)N4CCC[C@H]4N2)[C@H]3c2ccccc2)cc1` [AGLAIASTATIN], for which the IC50 in the assay with NIH3T3 [3] turned out to be 1.8 ng/mL (≈ 0.00342 µM); in the assay on NRK [4], 2.1 ng/mL (≈ 0.00399 µM); in [6] it was 4.1 ng/mL (≈ 0.00779 µM); with NRK [9], 2.8 ng/mL (≈ 0.00532 µM); with NIH3T3 [10], 1 ng/mL (≈ 0.0019 µM); in the assay with NIH3T3 [12], 5.6 ng/mL (≈ 0.0106 µM). The result with NRK [5] and with NRK [13] was inactive. Moreover, the result in the assay on NRK [7], with NRK [8], with NRK [11] and in the assay on NRK [14] was Active.
